Target: Tie-2 kinase enzyme (Homo sapiens, UniProt Q02763)
Experiment: Tie-2 Homogenous Time Resolved Flourescent (HTRF) kinase assay
Type: biochemical
Details: 0.01 mM ATP, about 90 minutes at RT; read-out: IC50 for the inhibition of Tie-2 as measured by the HTRF assay
Protocol: IC50's for the inhibition of the Tie-2 kinase enzyme for individual compounds were measured using an HTRF assay, utilizing the following procedure:
In a 96 well plate (available from Costar Co.) was placed 1 uL of each test and standard compound per well in 100% DMSO having a 25 uM final compound concentration (3-fold, 10 point dilution). To each well was added 20 uL of a reaction mix formed from […], 0.05% BSA (0.1 uL; from a 10% stock solution available from Sigma-Aldrich Co.), 0.002 mM of BLC HER-2 KKK (Biotinylated Long chain peptide; 0.04 uL; from a […] stock solution), 0.01 mM concentration of ATP (0.02 uL; commercially available from Sigma-Aldrich Co.) and the remaining solution was water (15.84 uL) to make to a total volume of 20 uL/well.
The reaction was initiated in each well by adding 20 uL per well of an enzyme preparation consisting of a 50 mM concentration of Hepes (1.0 uL; from a 1000 mM stock solution commercially available from Gibco Co.), 0.05% concentration of BSA (0.1 uL), 4 mM of DTT (0.08 uL; from a 1000 mM stock solution available from Sigma-Aldrich Co.), a 2.4×10^−7 concentration of Tie-2 (0.02 uL, from a 4 mM concentration stock), with the remaining volume being water (18.8 uL) to dilute the enzyme preparation to a total volume of 20 uL. The plate was incubated for about 90 minutes at RT. After incubation, a 160 uL of a filtered detection mixture, prepared from 0.001 mg/ml of SA-APC (0.0765 uL; available as a 2.09 mg/ml stock solution from Gibco), 0.03125 nM concentration of Eu-Ab (0.1597 uL; available in a 31.3 nM stock solution from Gibco), with the remaining volume being Detection buffer (159.73 uL), was added to each well to stop the reaction therein. The plate was then allowed to equilibrate for about 3 hr and read on a Ruby Star fluorescent reader (available from BMG Technologies, Inc.) using a 4 parameter fit using activity base to calculate the corresponding IC50's for the test and standard compounds in each well.

Sequence of Tie-2 kinase enzyme (Q02763 23-1124): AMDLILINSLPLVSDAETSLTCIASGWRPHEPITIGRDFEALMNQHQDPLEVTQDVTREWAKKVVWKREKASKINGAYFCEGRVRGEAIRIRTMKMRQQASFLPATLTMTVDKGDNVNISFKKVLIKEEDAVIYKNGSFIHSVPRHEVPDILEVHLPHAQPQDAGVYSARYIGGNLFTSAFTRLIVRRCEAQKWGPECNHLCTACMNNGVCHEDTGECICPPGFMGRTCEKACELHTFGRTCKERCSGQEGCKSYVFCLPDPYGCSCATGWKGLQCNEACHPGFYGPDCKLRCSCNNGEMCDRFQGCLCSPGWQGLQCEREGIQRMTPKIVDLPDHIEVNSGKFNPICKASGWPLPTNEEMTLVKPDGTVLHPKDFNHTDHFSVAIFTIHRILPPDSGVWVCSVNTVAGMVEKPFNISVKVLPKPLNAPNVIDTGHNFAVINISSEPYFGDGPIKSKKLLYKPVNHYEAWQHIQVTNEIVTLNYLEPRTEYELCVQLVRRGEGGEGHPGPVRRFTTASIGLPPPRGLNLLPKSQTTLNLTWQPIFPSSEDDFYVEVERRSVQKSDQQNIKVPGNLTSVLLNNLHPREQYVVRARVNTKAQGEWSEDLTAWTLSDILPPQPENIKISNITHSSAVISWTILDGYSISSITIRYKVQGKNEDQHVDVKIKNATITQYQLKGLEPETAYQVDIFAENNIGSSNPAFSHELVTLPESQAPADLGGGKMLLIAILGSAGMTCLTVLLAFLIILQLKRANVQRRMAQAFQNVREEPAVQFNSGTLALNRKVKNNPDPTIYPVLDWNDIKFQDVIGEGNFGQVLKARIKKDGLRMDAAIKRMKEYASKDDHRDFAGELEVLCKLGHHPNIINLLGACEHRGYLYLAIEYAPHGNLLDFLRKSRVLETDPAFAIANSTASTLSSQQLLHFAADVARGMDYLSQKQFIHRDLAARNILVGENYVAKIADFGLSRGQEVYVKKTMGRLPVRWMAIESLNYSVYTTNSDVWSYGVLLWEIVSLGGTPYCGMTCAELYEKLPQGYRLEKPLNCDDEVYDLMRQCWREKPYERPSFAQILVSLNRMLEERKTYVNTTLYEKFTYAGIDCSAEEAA

`Cc1ccc(C(=O)Nc2cccc(C(C)C)c2)cc1Oc1ncccc1-c1cn[nH]c1` [Example 1, 3-(3-(1H-pyrazol-4-yl)pyridin-2-yloxy)-N-(3-isopropylphenyl)-4-methylbenzamide] was tested. Which IC50 did it give?
The IC50 was ≤ 100 nM.

For `CN(C)CCCN(C)c1ccc(C(F)(F)F)cc1NC(=O)c1cc(Oc2ncccc2-c2cnco2)ccc1F` [Example 2, N-(2-((3-(dimethylamino)propyl)(methyl)amino)-5-(trifluoromethyl)phenyl)-2-fluoro-5-(3-(oxazol-5-yl)pyridin-2-yloxy)benzamide], which IC50 is on record?
Its IC50 is ≤ 500 nM.

With `Cc1ccc(C(=O)Nc2cccc(C(C)C)c2)cc1Nc1ncccc1-c1nnn[nH]1` [Example 3, 3-(3-(1H-tetrazol-5-yl)pyridin-2-ylamino)-N-(3-isopropylphenyl)-4-methylbenzamide] as the compound, how does the IC50 read?
The IC50 was ≤ 1000 nM.

With `Cc1ccc(C(=O)Nc2cccc(C(C)C)c2)cc1Oc1ncccc1-c1cnn(Cc2ccccc2)c1` [Example 10, 3-(3-(1-benzyl-1H-pyrazol-4-yl)pyridin-2-yloxy)-N-(3-isopropylphenyl)-4-methylbenzamide] as the compound, how does the IC50 read?
The IC50 was ≤ 500 nM.

Which IC50 does the source give for `COc1ccc(C2CCCCC2)cc1NC(=O)c1ccc(C)c(Oc2ncccc2-c2cn[nH]c2)c1` [Example 11, 3-(3-(1H-pyrazol-4-yl)pyridin-2-yloxy)-N-(5-cyclohexyl-2-methoxyphenyl)-4-methylbenzamide] here?
The IC50 was ≤ 100 nM.

For `Cc1ccc(C(=O)Nc2cccc(C(C)C)c2)cc1Nc1ncccc1-c1nnn[nH]1` [Example 12, 3-(3-(1H-tetrazol-5-yl)pyridin-2-ylamino)-N-(3-isopropylphenyl)-4-methylbenzamide], which IC50 is on record?
Its IC50 is ≤ 500 nM.

Which IC50 does the source give for `Cc1ccc(C(=O)Nc2cccc(C(C)C)c2)cc1Oc1ncccc1-c1cnco1` [Example 14, N-(3-isopropylphenyl)-4-methyl-3-(3-(oxazol-5-yl)pyridin-2-yloxy)benzamide] here?
The IC50 was ≤ 100 nM.

How did the IC50 turn out when `Cc1ccc(C(=O)Nc2cccc(C(F)(F)F)c2)cc1Oc1ncccc1-c1ccn[nH]1` [Example 15, 3-(3-(1H-pyrazol-5-yl)pyridin-2-yloxy)-4-methyl-N-(3-(trifluoromethyl)phenyl)benzamide] was run?
Its IC50 is ≤ 500 nM.

For `O=C(Nc1cccc(OC(F)(F)F)c1)c1cc(Oc2ncccc2-c2cnco2)ccc1F` [Example 16, 2-fluoro-5-(3-(oxazol-5-yl)pyridin-2-yloxy)-N-(3-(trifluoromethoxy)phenyl)benzamide], which IC50 is on record?
The IC50 was ≤ 1000 nM.

How did the IC50 turn out when `Cc1ccc(C(=O)Nc2cccc(C(C)C)c2)cc1Oc1ccccc1-c1cnco1` [Example 18, N-(3-isopropylphenyl)-4-methyl-3-(2-(oxazol-5-yl)phenoxy)benzamide] was run?
The IC50 was ≤ 100 nM.

`Cc1ccc(C(=O)Nc2cc(C(F)(F)F)ccc2N(C)CCCN(C)C)cc1Oc1ccccc1-c1cnco1` [Example 19, N-(2-((3-(dimethylamino)propyl)(methyl)amino)-5-(trifluoromethyl)phenyl)-4-methyl-3-(2-(oxazol-5-yl)phenoxy)benzamide] was tested. Which IC50 did it give?
The IC50 was ≤ 500 nM.

With `Cc1ccc(C(=O)Nc2cc(C(F)(F)F)ccc2N(C)CCCN(C)C)cc1Oc1ncccc1-c1cnco1` [Example 20, N-(2-((3-(dimethylamino)propyl)(methyl)amino)-5-(trifluoromethyl)phenyl)-4-methyl-3-(3-(oxazol-5-yl)pyridin-2-yloxy)benzamide] as the compound, how does the IC50 read?
The IC50 was ≤ 500 nM.

With `Cc1ccc(C(=O)Nc2cccc(C(F)(F)F)c2)cc1Oc1ncccc1-c1cnco1` [Example 22, 4-methyl-3-(3-(oxazol-5-yl)pyridin-2-yloxy)-N-(3-(trifluoromethyl)phenyl)benzamide] as the compound, how does the IC50 read?
Its IC50 is ≤ 100 nM.

Which IC50 does the source give for `O=C(Nc1ccc(Oc2ncccc2-c2cn[nH]c2)cc1)c1ccccc1Nc1ccccc1` [Example 23, N-(4-(3-(1H-pyrazol-4-yl)pyridin-2-yloxy)phenyl)-2-(phenylamino)benzamide] here?
Its IC50 is ≤ 1000 nM.
